The numbers were not newly measured in patent US20190314298A1, “COMPOSITIONS FOR PREVENTING AND RELIEVING HANGOVER & LIVER DAMAGE WHICH OCCUR DUE TO ALCOHOL CONSUMPTION” (priority 2018, published 2019), which cites them from elsewhere.

For this data set the following is noted: biological activities listed in background table.

`CC(C)=CC(=O)CC(C)c1ccc(C)cc1` (centres unmarked) [Ar-turmerone]: the Activity entry was “snakebite”.
For `O=C(C=Cc1ccc(O)cc1)CC(=O)C=Cc1ccc(O)cc1` [Bisdemethoxy curcumin], the Activity entry is listed as “antioxidant”.
`COc1cc(/C=C/C(=O)/C=C(O)\C=C\c2ccc(OC)c(OC)c2)ccc1O` [Methylcurcumin]: the Activity result was “L. amazonensis”.
Regarding `COc1cc(/C=C/C(=O)CC(=O)/C=C/c2ccc([O-])c(OC)c2)ccc1[O-].[Na+].[Na+]` [Sodium curcuminate], the Activity entry is recorded as “anti-inflammatory”.
With Demethoxy curcumin, the Activity entry is recorded as “antioxidant”.
